We go through eight molecules from PubChem BioAssay (NCI).

Structures are written as SMILES. “And” between values parts separate entries of the source, which are not always exact repeats. Identical values can stand only once.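 Interpolation was linear, between the two tested concentrations surrounding the appropriate level; five concentrations were tested over 48 hours in 96-well plates. GI50 marks 50% less growth. At the TGI there is no net growth.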

Test systems include SK-MEL-28 melanoma; ACHN renal; U251 CNS; UACC-62 melanoma; OVCAR-3 ovarian; SK-OV-3 ovarian; UO-31 renal; NCI/ADR-RES ovarian; OVCAR-5 ovarian; MDA-MB-435.
Assay in all cases: DTP human tumour cell line panel, 48 h

In general, TGI refers to the concentration at which net growth stops. In general, GI50 refers to the concentration at which growth is held to half of that of the control. Regarding `CC[C@@]1(O)C(=O)OCc2c1cc1n(c2=O)Cc2cc3c(N)cccc3nc2-1`, the TGI with SK-MEL-28 melanoma is 16.3 µM; in the assay with ACHN renal, 0.0501 µM; with U251 CNS, 1.55 µM; with UACC-62 melanoma it was 0.033 µM and 0.0638 µM; in the assay with OVCAR-3 ovarian, 1.42 µM; in the assay on SK-OV-3 ovarian, 1.68 µM. The concentration for total growth inhibition (TGI) in the assay on UO-31 renal is 0.127 µM; in the assay with NCI/ADR-RES ovarian, 2.08 µM; with OVCAR-5 ovarian, 1.1 µM; with MDA-MB-435, 2.16 µM. Further, the GI50 in the assay with ACHN renal was 0.00448 µM; in the assay on U251 CNS it was 0.00889 µM; in the assay on UACC-62 melanoma it was 0.00361 µM; in the assay with UO-31 renal, 0.00841 µM; in the assay on NCI/ADR-RES ovarian, 0.0158 µM and < 0.0151 µM; with OVCAR-5 ovarian it was 0.0763 µM.
With `CN(C)C/C=C/C(=O)Nc1ccc(C(=O)N2CCC[C@@H](Nc3ncc(Cl)c(-c4c[nH]c5ccccc45)n3)C2)cc1`, the GI50 in the assay on SK-MEL-28 melanoma was 0.121 µM; with ACHN renal it was 3.41 µM; in the assay on U251 CNS it was 0.306 µM; with UACC-62 melanoma, 0.173 µM; in the assay on OVCAR-3 ovarian, 0.0644 µM; with SK-OV-3 ovarian, 0.395 µM. Besides, the GI50 in the assay on UO-31 renal is 9.84 µM; in the assay on NCI/ADR-RES ovarian, 32.8 µM; with OVCAR-5 ovarian, 0.328 µM; in the assay with MDA-MB-435 it was 0.0832 µM. The TGI in the assay on SK-MEL-28 melanoma amounted to 0.942 µM; with ACHN renal, 12.7 µM; with U251 CNS, 10 µM; in the assay with UACC-62 melanoma, 0.445 µM; in the assay with OVCAR-3 ovarian, 0.99 µM; with SK-OV-3 ovarian, 12.4 µM. The TGI is 23 µM in the assay on UO-31 renal, greater than 100 µM in the assay with NCI/ADR-RES ovarian, 11.6 µM in the assay on OVCAR-5 ovarian and 1.23 µM with MDA-MB-435.
On to `C=CC(=O)Nc1cccc(Nc2nc(Nc3ccc(OCCOC(F)F)cc3)ncc2F)c1`, for which the GI50 with SK-MEL-28 melanoma was 7.36 µM; in the assay with ACHN renal it was 1.35 µM; in the assay on U251 CNS it was 2.39 µM; with UACC-62 melanoma, 1.73 µM; with OVCAR-3 ovarian it was 2.32 µM; in the assay on SK-OV-3 ovarian, 0.706 µM. Besides, the GI50 is 1.29 µM in the assay on UO-31 renal, 2.48 µM in the assay with NCI/ADR-RES ovarian, 4.12 µM with OVCAR-5 ovarian and 2.21 µM with MDA-MB-435. Further, the TGI is greater than 100 µM with SK-MEL-28 melanoma; 10.4 µM with ACHN renal; 18.9 µM in the assay with U251 CNS; 11.1 µM with UACC-62 melanoma; 14.1 µM in the assay on OVCAR-3 ovarian; 3.34 µM in the assay with SK-OV-3 ovarian. Also, the TGI with UO-31 renal was 9.56 µM; in the assay with NCI/ADR-RES ovarian it was 19.7 µM; with OVCAR-5 ovarian, greater than 100 µM; in the assay on MDA-MB-435, 7.22 µM.
As for `O=C(O)C1C2C=CC(O2)C1C(=O)Nc1ncccn1` (stereo unspecified), the TGI in the assay on SK-MEL-28 melanoma, in the assay with ACHN renal, with U251 CNS, with UACC-62 melanoma, in the assay on OVCAR-3 ovarian and in the assay on SK-OV-3 ovarian was greater than 100 µM each time. Also, the total growth inhibition concentration (TGI) with UO-31 renal, in the assay on NCI/ADR-RES ovarian, in the assay on OVCAR-5 ovarian and with MDA-MB-435 was greater than 100 µM in each case.
`C[C@@H]1C/C=C\C(=O)O[C@H](/C=C/C#C/C=C/C(C)(C)[C@@H](O)c2cccc(O)c2Br)[C@@H](C)/C=C/[C@H](C)C[C@H](OC(N)=O)C1`: the GI50 with SK-MEL-28 melanoma was 0.278 µM; with ACHN renal, 0.0405 µM; in the assay with U251 CNS it was 0.0706 µM; with UACC-62 melanoma, 0.0239 µM; in the assay with OVCAR-3 ovarian it was 0.0636 µM; with SK-OV-3 ovarian, 13.3 µM. The GI50 in the assay with UO-31 renal is 0.0227 µM; with NCI/ADR-RES ovarian, 0.0567 µM; with OVCAR-5 ovarian, 0.0322 µM; with MDA-MB-435, 0.0332 µM. For the same molecule, the TGI in the assay with SK-MEL-28 melanoma was determined as 12.9 µM; in the assay with ACHN renal it was 14.5 µM; with U251 CNS it was 18.3 µM; in the assay with UACC-62 melanoma it was 0.0656 µM; in the assay on OVCAR-3 ovarian, 15.7 µM; with SK-OV-3 ovarian it was 27.3 µM. Also, the TGI with UO-31 renal came to 0.0799 µM; in the assay with NCI/ADR-RES ovarian, 16.4 µM; in the assay on OVCAR-5 ovarian, 18.3 µM; in the assay on MDA-MB-435, 12.1 µM.
As for `c1ccc(CC(NCCNC(Cc2ccccc2)c2ccccc2)c2ccccc2)cc1` (stereo unspecified), the GI50 with SK-MEL-28 melanoma was 1.22 µM; with ACHN renal it was 0.585 µM; with U251 CNS, 0.406 µM; with UACC-62 melanoma, 0.491 µM; in the assay with OVCAR-3 ovarian it was 0.398 µM; with SK-OV-3 ovarian, 1.3 µM. Moreover, the GI50 was 0.415 µM in the assay on UO-31 renal, 0.643 µM in the assay on NCI/ADR-RES ovarian, 1.24 µM in the assay with OVCAR-5 ovarian and 0.817 µM in the assay with MDA-MB-435. The total growth inhibition concentration (TGI) in the assay with SK-MEL-28 melanoma is 2.8 µM; in the assay on ACHN renal it was 2.49 µM; in the assay on U251 CNS, 1.43 µM; with UACC-62 melanoma, 1.86 µM; in the assay with OVCAR-3 ovarian, 1.46 µM; in the assay with SK-OV-3 ovarian it was 3.93 µM. Further, the TGI in the assay with UO-31 renal turned out to be 1.96 µM; in the assay on NCI/ADR-RES ovarian it was 2.2 µM; in the assay on OVCAR-5 ovarian it was 3.57 µM; in the assay on MDA-MB-435, 2.22 µM.
Consider `NC(=O)C(=O)n1ncc(Cl)c(Cl)c1=O`, for which the total growth inhibition concentration (TGI) was 30.5 µM in the assay with SK-MEL-28 melanoma; 55.7 µM in the assay on ACHN renal; greater than 60.3 µM in the assay on U251 CNS; 54.4 µM in the assay on UACC-62 melanoma; 50.8 µM in the assay with OVCAR-3 ovarian; greater than 100 µM with SK-OV-3 ovarian. The TGI with UO-31 renal is 48.1 µM; in the assay with NCI/ADR-RES ovarian it was greater than 100 µM; in the assay on OVCAR-5 ovarian, 63.1 µM; in the assay on MDA-MB-435, greater than 100 µM.
Consider `Cn1cnc([N+](=O)[O-])c1Sc1nc(N)nc2nc[nH]c12`, for which the GI50 in the assay with SK-MEL-28 melanoma is greater than 42.5 µM; in the assay on ACHN renal, 10 µM; with U251 CNS, 23 µM; in the assay with UACC-62 melanoma, 2.96 µM; in the assay on OVCAR-3 ovarian, 4.65 µM; with SK-OV-3 ovarian it was 0.727 µM. Besides, the GI50 was 4.71 µM in the assay with UO-31 renal, 2.17 µM with NCI/ADR-RES ovarian, 4.48 µM with OVCAR-5 ovarian and 3.31 µM in the assay on MDA-MB-435. Also, the TGI in the assay on SK-MEL-28 melanoma was greater than 100 µM; in the assay with ACHN renal, greater than 100 µM; in the assay with U251 CNS it was greater than 100 µM; with UACC-62 melanoma, 25.7 µM; with OVCAR-3 ovarian, greater than 100 µM; with SK-OV-3 ovarian it was greater than 100 µM. For the same molecule, the TGI with UO-31 renal, in the assay on NCI/ADR-RES ovarian, in the assay on OVCAR-5 ovarian and in the assay with MDA-MB-435 was greater than 100 µM in each case.
